Values of other authors as cited in EP3357492B1, “MULTILAYER TABLET FOR ADMINISTRATION OF MAGNESIUM” (S.I.I.T. S.r.l.-Servizio Internazionale Imballaggi …, priority 2017, dated 2018).

Assays:
[1] = in water

Question: Which “pH (1% in water solution)” value does the source give for `O=C(O)CC(O)(CC(=O)O)C(=O)O` [Citrate] here?
Answer: Its value is 4.

Question: For `O.O.O.O.O.O=P([O-])([O-])[O-].O=P([O-])([O-])[O-].[Mg+2].[Mg+2].[Mg+2]` [Phosphate 5 hydrate], which “pH (1% in water solution)” value is on record?
Answer: The value was 8.

Question: With `O=C([O-])[O-].[Na+].[Na+]` [Carbonate] as the compound, how does the “pH (1% in water solution)” value read?
Answer: The value was 10.

Question: For Glycerophosphate, which “Solubility (g/100 g water)” value [1] is on record?
Answer: Its value is 4 g/100 g water.

Question: And the “pH (1% in water solution)” value?
Answer: Its value is 7.

Question: Which “pH (1% in water solution)” value does the source give for `O=C([O-])CC(O)(CC(=O)[O-])C(=O)[O-].O=C([O-])CC(O)(CC(=O)[O-])C(=O)[O-].[Mg+2].[Mg+2].[Mg+2]` [Dicitrate] here?
Answer: The value was 9.

Question: Which “pH (1% in water solution)” value does the source give for Fumarate here?
Answer: The value was 7.

Question: For `[O]=[Mg]` [Oxide, Magnesium oxide], which “Solubility (g/100 g water)” value [1] is on record?
Answer: Its value is under 1 g/100 g water.

Question: What about the “pH (1% in water solution)” value of the same compound?
Answer: Its value is 10.5.

Question: Which “pH (1% in water solution)” value does the source give for `O.O.O.O.O.O.[Cl-].[Cl-].[Mg+2]` [Chloride 6 hydrate] here?
Answer: The value was 5.

Question: With `[Mg+2].[OH-].[OH-]` [Hydroxide, Magnesium hydroxide] as the compound, how does the “pH (1% in water solution)” value read?
Answer: The value was 10.5.

Question: Which “pH (1% in water solution)” value does the source give for `O.O.O=C1O[C@H]([C@@H](O)CO)C([O-])=C1O.O=C1O[C@H]([C@@H](O)CO)C([O-])=C1O.[Mg+2]` [Ascorbate 2 hydrate] here?
Answer: The value was 7.

Question: Which “pH (1% in water solution)” value does the source give for `N[C@@H](CC(=O)O)C(=O)[O-].N[C@@H](CC(=O)O)C(=O)[O-].O.O.O.O.[Mg+2]` [Aspartate 4 hydrate] here?
Answer: Its value is 7.

Question: Which “Solubility (g/100 g water)” value [1] does the source give for Phosphate here?
Answer: The value was 40-50 g/100 g water.

Question: What about the “pH (1% in water solution)” value of the same compound?
Answer: Its value is 6.

Question: For Gluconate, which “pH (1% in water solution)” value is on record?
Answer: Its value is 7.

Question: Which “pH (1% in water solution)” value does the source give for Lactate here?
Answer: The value was 7.

Question: For `O=C([O-])CC(O)(CC(=O)[O-])C(=O)[O-].[K+].[K+].[K+]` [Potassium citrate], which “pH (1% in water solution)” value is on record?
Answer: The value was 7.5.

Question: Which “pH (1% in water solution)” value does the source give for `O=C1CC[C@@H](C(=O)[O-])N1.O=C1CC[C@@H](C(=O)[O-])N1.[Mg+2]` [Pidolate] here?
Answer: Its value is 6.

Question: Which “pH (1% in water solution)” value does the source give for `CCC(=O)O` [Propionate] here?
Answer: Its value is 10.
